According to patent US6946458B2, “N-thiolated beta-lactams: novel antibacterial agents for methicillin-resistant Staphylococcus aureus” (University of South Florida, priority 1999, dated 2005):

Legend:
Micrococcus luteus = assay: Kirby-Bauer agar disk diffusion; type: cell-based; conditions: 6-mm disks, 20 μg test compound
Protocol: (§1) In this study, a selection of N-methylthio-substituted β-lactams are examined for antimicrobial activity by the Kirby-Bauer disk diffusion method on agar plates. A variety of common Gram-positive and Gram-negative bacteria are tested, including clinical isolates of methicillin-resistant Staphylococcus aureus (MRSA).
(§2) Compound susceptibility measurements are obtained from agar disk diffusion experiments using 6-mm air-dried disks impregnated with 20 μg of the test compound. The values correspond to the average diameters in mm (triplicate experiments) for the zone of growth inhibition observed after 24 h. Staphylococcus aureus (ATCC 25923) and β-lactamase-producing strains of methicillin-resistant Staphylococcus aureus (labeled as MRSA USF652-659) are obtained from Lakeland Regional Medical Center, Lakeland, Fla. Staphylococcus epidermidis, Staphylococcus simulans, Staphylococcus simulans, and Microcossus luteus are clinical isolates from University of South Florida Medical Clinic. Nieserria gonnorhoeae (β-lactamase positive) is obtained from the Tampa Branch State Laboratory. PenG is penicillin G (potassium salt). Table 1 provides the zones of growth inhibition that are observed after 24 hours using the lactams of FIGS. 1A-1I (designated A-I, respectively).
(§3) Of particular interest is the ability of these compounds to retain their effectiveness against penicillin-resistant strains of Staphylococcus aureus, a dangerous hospital-borne pathogen which is becoming difficult to treat with conventional antibiotic therapy. The lactams were screened for antibacterial activity by disk diffusion on agar plates, and the resulting zones of bacterial growth inhibition measured (see Table 3; each lactam is designated by Figure number).
(§4) Table 3: Growth inhibition zones obtained from agar disk diffusion experiments using 6-mm air-dried disks impregnated with 20 μg of the test compound. The values correspond to the average diameters in mm for the zone of growth inhibition observed after 24 hours. Staphylococcus aureus and β-lactamase-producing strains of methicillin-resistant Staphylococcus aureus (labeled MRSA USF652-659) are obtained from a clinical testing laboratory at Lakeland Regional Medical Center, Lakeland, Fla.

[1] = system: Staphylococcus aureus (ATCC 25923); assay: Kirby-Bauer agar disk diffusion; type: cell-based; conditions: 6-mm disks, 20 μg test compound
Protocol: as §1, §2, §3, §4

[2] = system: Staphylococcus epidermidis; assay: Kirby-Bauer agar disk diffusion; type: cell-based; conditions: 6-mm disks, 20 μg test compound
Protocol: as §1, §2, §3, §4

S. simulans (ATCC 11631) = assay: Kirby-Bauer agar disk diffusion; type: cell-based, Staphylococcus simulans; conditions: 6-mm disks, 20 μg test compound
Protocol: as §1, §2, §3, §4

[3] = system: Staphylococcus strains including MRSA; assay: antibacterial activity screening, results stated in words; type: cell-based, Staphylococcus aureus; conditions: Example 2; all microorganisms tested
Source text: However, the N-alkylthio substituent is required, since reduction to the N—H analogue completely destroys the biological activity. […]
as §3
With the lactam of FIG. 6A serving as a lead structure, other C4-unsaturated derivatives (FIGS. 6B-6E) and C4-saturated analogues (FIGS. 6F-6H), were examined all of which also have activity against Staphylococcus strains including MRSA.
(§5) Scheme I summarizes the synthesis of ester compounds 4. 4-Carboxy benzaldehyde (1) is coupled with the appropriate alcohol using DCC/DMAP, followed by reaction with p-anisidine, to give imines 2. Staudinger coupling of methoxyacetyl chloride with imine 2 gives N-aryl protected β-lactam 3. N-Dearylation of β-lactam 3 with ceric ammonium nitrate and methylthiolation with N-(methylthio)phthalimide affords N-methylthio β-lactams 4. These compounds are tested for antibacterial activity by the Kirby-Bauer method of disc diffusion on agar plates. [drawing 7]

MRSA USF656 = assay: Kirby-Bauer agar disk diffusion; type: cell-based, Staphylococcus aureus; conditions: 6-mm disks, 20 μg test compound
Protocol: as §1, §2, §3, §4
(§6) Those compounds were tested for bioactivity using the Kirby-Bauer test on agar plates.
(§7) Biological activity is enhanced against β-lactamase producing strains of methicillin-resistant Staphylococcus aureus (MRSA). With the lactam shown in FIG. 11A serving as a lead structure, a series of other C-4 substituted derivatives (FIGS. 11B-11I) were investigated herein. Table 5 lists microbiological data for β-lactams from Kirby-Bauer Disc Diffusion Test Results (with each lactam identified by Figure number).
as §5

MRSA USF659 = assay: Kirby-Bauer agar disk diffusion; type: cell-based, Staphylococcus aureus; conditions: 6-mm disks, 20 μg test compound
Protocol: as §1, §2, §3, §4, §6, §7, §5

MRSA USF655 = assay: Kirby-Bauer agar disk diffusion; type: cell-based, Staphylococcus aureus; conditions: 6-mm disks, 20 μg test compound
Protocol: as §1, §2, §3, §4, §6, §7, §5

MRSA USF657 = assay: Kirby-Bauer agar disk diffusion; type: cell-based, Staphylococcus aureus; conditions: 6-mm disks, 20 μg test compound
Protocol: as §1, §2, §3, §4, §6, §7, §5

MRSA USF658 = assay: Kirby-Bauer agar disk diffusion; type: cell-based, Staphylococcus aureus; conditions: 6-mm disks, 20 μg test compound
Protocol: as §1, §2, §3, §4, §6, §7, §5

MRSA USF652 = assay: Kirby-Bauer agar disk diffusion; type: cell-based, Staphylococcus aureus; conditions: 6-mm disks, 20 μg test compound
Protocol: as §1, §2, §3, §4, §6, §7, §5

MRSA USF654 = assay: Kirby-Bauer agar disk diffusion; type: cell-based, Staphylococcus aureus; conditions: 6-mm disks, 20 μg test compound
Protocol: as §1, §2, §3, §4, §6, §7, §5

MRSA USF653 = assay: Kirby-Bauer agar disk diffusion; type: cell-based, Staphylococcus aureus; conditions: 6-mm disks, 20 μg test compound
Protocol: as §1, §2, §3, §4, §6, §7, §5

[4] = system: S. saprophyticus (ATCC 3552); assay: Kirby-Bauer agar disk diffusion; type: cell-based, Staphylococcus saprophyticus; conditions: 6-mm disks, 20 μg test compound
Protocol: as §1, §2, §3, §4

N. gonorrhoeae = assay: Kirby-Bauer agar disk diffusion; type: cell-based, Neisseria gonorrhoeae; conditions: Table 1; 6-mm disks, 20 μg test compound, 24 h, triplicate; β-lactamase positive
Protocol: as §1, §2

Row | SMILES | zone of growth inhibition, average diameter (Micrococcus luteus; Table 1, 24 h, triplicate) | zone of growth inhibition, average diameter ([1]; Table 1, 24 h, triplicate) | zone of growth inhibition, average diameter ([2]; Table 1, 24 h, triplicate) | zone of growth inhibition, average diameter (N. gonorrhoeae) | zone of growth inhibition, average diameter (S. simulans (ATCC 11631); Table 1, 24 h, triplicate) | zone of growth inhibition, average diameter (MRSA USF656; Table 1, 24 h, triplicate) | zone of growth inhibition, average diameter (MRSA USF659; Table 1, 24 h, triplicate) | zone of growth inhibition, average diameter (MRSA USF655; Table 1, 24 h, triplicate) | zone of growth inhibition, average diameter (MRSA USF657; Table 1, 24 h, triplicate) | zone of growth inhibition, average diameter (MRSA USF658; Table 1, 24 h, triplicate) | zone of growth inhibition, average diameter (MRSA USF652; Table 1, 24 h, triplicate) | zone of growth inhibition, average diameter (MRSA USF654; Table 1, 24 h, triplicate) | zone of growth inhibition, average diameter (MRSA USF653; Table 1, 24 h, triplicate) | zone of growth inhibition, average diameter ([4]; Table 1, 24 h, triplicate) | also measured
1 | COC1C(=O)N(SC)C1C(C#Cc1ccccc1)OC(C)=O (mixture of isomers) [FIG. 3H] | – | – | – | – | – | – | – | – | – | – | – | – | – | – | zone of growth inhibition, average diameter (Micrococcus luteus; Table 3, 24 hours): 0 mm; zone of growth inhibition, average diameter ([1]; Table 3, 24 hours): 0 mm; zone of growth inhibition, average diameter ([2]; Table 3, 24 hours): 0 mm; zone of growth inhibition, average diameter (S. simulans (ATCC 11631); Table 3, 24 hours): 0 mm; antimicrobial activity, in words [3]: inactive; zone of growth inhibition, average diameter (MRSA USF656; Table 3, 24 hours): 0 mm; zone of growth inhibition, average diameter (MRSA USF659; Table 3, 24 hours): 0 mm; zone of growth inhibition, average diameter (MRSA USF655; Table 3, 24 hours): 0 mm; zone of growth inhibition, average diameter (MRSA USF657; Table 3, 24 hours): 0 mm; zone of growth inhibition, average diameter (MRSA USF658; Table 3, 24 hours): 0 mm; zone of growth inhibition, average diameter (MRSA USF652; Table 3, 24 hours): 0 mm; zone of growth inhibition, average diameter (MRSA USF654; Table 3, 24 hours): 0 mm; zone of growth inhibition, average diameter (MRSA USF653; Table 3, 24 hours): 0 mm; zone of growth inhibition, average diameter ([4]; Table 3, 24 hours): 0 mm
2 | COC1C(=O)N(SC)C1C#Cc1ccccc1 (racemic) [Lactam A] | 23 mm | 27 mm | 30 mm | 13 mm | 21 mm | 30 mm | 25 mm | 29 mm | 30 mm | 27 mm | 31 mm | 28 mm | 30 mm | 22 mm | –
3 | COC1C(=O)N(SC)C1C=Cc1ccccc1 (racemic) [Lactam B] | 20 mm | 18 mm | 23 mm | 11 mm | 11 mm | 19 mm | 15 mm | 17 mm | 17 mm | 16 mm | 19 mm | 16 mm | 23 mm | 12 mm | –
4 | COC1C(=O)N(SC)C1c1ccccc1 (racemic) [Lactam C] | 21 mm | 25 mm | 31 mm | 14 mm | 14 mm | 28 mm | 24 mm | 25 mm | 27 mm | 26 mm | 30 mm | 26 mm | 30 mm | 22 mm | –
5 | COC1C(=O)N(SC)C1c1cccc([N+](=O)[O-])c1 (racemic) [Lactam E] | 22 mm | 15 mm | 20 mm | 12 mm | 13 mm | 18 mm | 11 mm | 14 mm | 18 mm | 17 mm | 17 mm | 16 mm | 22 mm | 15 mm | –
6 | COC(=O)c1ccc(C2C(OC)C(=O)N2SC)cc1 (racemic) [Lactam F] | 20 mm | 12 mm | 12 mm | 11 mm | 0 mm | 11 mm | 13 mm | 14 mm | 12 mm | 12 mm | 12 mm | 12 mm | 14 mm | 8 mm | –
7 | COC1C(=O)N(SC)C1c1ccc(C#N)cc1 (racemic) [Lactam G] | 21 mm | 14 mm | 20 mm | 12 mm | 0 mm | 13 mm | 12 mm | 12 mm | 10 mm | 12 mm | 14 mm | 12 mm | 16 mm | 14 mm | –
8 | COC1C(=O)N(SC)C1c1ccccc1C (racemic) [Lactam H] | 21 mm | 23 mm | 25 mm | 12 mm | 14 mm | 25 mm | 20 mm | 23 mm | 23 mm | 22 mm | 23 mm | 23 mm | 27 mm | 15 mm | –
9 | COC1C(=O)N2SC(c3ccccc3)=C(I)C12 (stereo not drawn) [FIG. 2D] | – | – | – | – | – | – | – | – | – | – | – | – | – | – | zone of growth inhibition, average diameter (Micrococcus luteus; Table 3, 24 hours): 0 mm; zone of growth inhibition, average diameter ([1]; Table 3, 24 hours): 0 mm; zone of growth inhibition, average diameter ([2]; Table 3, 24 hours): 0 mm; zone of growth inhibition, average diameter (S. simulans (ATCC 11631); Table 3, 24 hours): 0 mm; antimicrobial activity, in words [3]: no antimicrobial activity; zone of growth inhibition, average diameter (MRSA USF656; Table 3, 24 hours): 0 mm; zone of growth inhibition, average diameter (MRSA USF659; Table 3, 24 hours): 0 mm; zone of growth inhibition, average diameter (MRSA USF655; Table 3, 24 hours): 0 mm; zone of growth inhibition, average diameter (MRSA USF657; Table 3, 24 hours): 0 mm; zone of growth inhibition, average diameter (MRSA USF658; Table 3, 24 hours): 0 mm; zone of growth inhibition, average diameter (MRSA USF652; Table 3, 24 hours): 0 mm; zone of growth inhibition, average diameter (MRSA USF654; Table 3, 24 hours): 0 mm; zone of growth inhibition, average diameter (MRSA USF653; Table 3, 24 hours): 0 mm; zone of growth inhibition, average diameter ([4]; Table 3, 24 hours): 0 mm
